Experimental data taken from ChEMBL document CHEMBL4024787, “Target Identification and Mode of Action of Four Chemically Divergent Drugs against Ebolavirus Infection” (J Med Chem, 2018).

Experiments:
[1] = molecular target: T1, Envelope glycoprotein (Zaire ebolavirus (strain Mayinga-76) (ZEBOV) (Zaire Ebola virus)) (UniProt Q05320); test: Binding affinity to Ebola virus Zaire Mayinga-76 recombinant GP protein assessed as change in melting temperature at 500 uM by SYPRO orange dye-based fluorescence assay; conditions: 1976
T1 sequence (whole entry): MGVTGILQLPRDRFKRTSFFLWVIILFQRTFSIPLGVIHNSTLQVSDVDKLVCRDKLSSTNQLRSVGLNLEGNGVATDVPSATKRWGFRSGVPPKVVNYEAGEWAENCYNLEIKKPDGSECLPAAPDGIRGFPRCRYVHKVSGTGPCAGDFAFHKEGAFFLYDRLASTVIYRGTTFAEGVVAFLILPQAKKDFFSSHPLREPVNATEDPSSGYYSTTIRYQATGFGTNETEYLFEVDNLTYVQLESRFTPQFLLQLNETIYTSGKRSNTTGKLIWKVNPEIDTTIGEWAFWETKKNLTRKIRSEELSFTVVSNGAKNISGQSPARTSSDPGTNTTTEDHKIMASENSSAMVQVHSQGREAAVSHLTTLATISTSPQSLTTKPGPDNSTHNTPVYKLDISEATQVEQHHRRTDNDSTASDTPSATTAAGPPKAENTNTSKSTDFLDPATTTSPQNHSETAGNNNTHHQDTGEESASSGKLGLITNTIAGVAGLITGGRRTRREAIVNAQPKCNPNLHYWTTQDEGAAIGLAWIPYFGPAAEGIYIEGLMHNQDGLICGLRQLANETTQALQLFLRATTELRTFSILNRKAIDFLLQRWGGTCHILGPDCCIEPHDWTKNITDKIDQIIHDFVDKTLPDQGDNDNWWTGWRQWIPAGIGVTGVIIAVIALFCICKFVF

[2] = tested on: Ebolavirus; test: microbe, parasite or virus in culture; type: functional; conditions: Orthoebolavirus, Vero C1008, 48 h
[3] = tested on: Ebolavirus; test: microbe, parasite or virus in culture; type: functional, cell-based; conditions: Orthoebolavirus, HepG2, 48 h
[4] = molecular target: T2, Envelope glycoprotein (Zaire ebolavirus (strain Mayinga-76) (ZEBOV) (Zaire Ebola virus), UniProt Q05320); test: Binding affinity to Ebola virus Zaire Mayinga-76 recombinant GP protein by SYPRO orange dye-based fluorescence assay; design: species or system 1976
T2 sequence (Q05320 whole entry): T1 sequence (whole entry)

SMILES | ΔTm [1] | IC50 [2] | IC50 [3] | Kd [4]
CN1[C@@H]2CC[C@@H]1CC(OC(c1ccccc1)c1ccccc1)C2 (relative stereo) | -6 °C |  |  | 
CC(C)COCC(CN(Cc1ccccc1)c1ccccc1)N1CCCC1 (configuration not stated) [BEPRIDIL] | -6 °C | 5.08 µM | 3.21 µM | 290 µM
Fc1ccc([C@@H]2CCNC[C@H]2COc2ccc3c(c2)OCO3)cc1 [PAROXETINE] | -4 °C | 7.45 µM | 1.38 µM | 650 µM
CN[C@H]1CC[C@@H](c2ccc(Cl)c(Cl)c2)c2ccccc21 [SERTRALINE] | -3 °C |  |  | 
CN(C)CCOc1ccc(/C(=C(/CCCl)c2ccccc2)c2ccccc2)cc1 [TOREMIFENE] |  | 0.162 µM | 0.026 µM | 
